From publication PMC9822434, “Estradiol-Based Salicylaldehyde (Thio)Semicarbazones and Their Copper Complexes with Anticancer, Antibacterial and Antioxidant Activities” (Molecules, 2022)

Tests used:
physchem = type: physicochemical
Method: An Orion 710A pH-meter equipped with a Metrohm combined electrode (type 6.0234.100) and a Metrohm 665 Dosimat burette were used for the UV–vis titrations at 25.0 ± 0.1 °C. Ionic strength of 0.10 M (KCl) was used to keep the activity coefficients constant. The titrations were performed with carbonate-free KOH solution of known concentration (0.10 M) with 30% (v/v) DMSO content. […] The average water ionization constant (pKw) is 14.54 ± 0.05 in the 30% (v/v) DMSO/H2O mixture. Argon was always passed over the solutions during the titrations. An Agilent Cary 8454 diode array spectrophotometer was used to record the UV–vis spectra at an interval of 200–800 nm. The path length was 2 cm. Spectrophotometric titrations were performed using a 0.1 M KOH titrant solution with 30% (v/v) DMSO on samples with 30% (v/v) DMSO containing HCl, KCl and the ligand at 20 μM concentration in the pH range 2.0–12.5 in the absence or in the presence of 1 or 0.5 equiv. Cu(II) ions. Proton dissociation constants (Ka) of the TSC ligands, the overall stability constants (β) of the Cu(II) complexes and the UV–vis spectra of the individual species were calculated by the computer program PSEQUAD [41] as was done in our previous works.

[1] = direct redox reaction of the Cu(II) complexes with GSH (UV–vis, anaerobic); type: physicochemical; settings: Cu(II) complex (25 µM) of the named ligand with GSH (1.25 mM), pH 7.4, anaerobic, 30% (v/v) DMSO/H2O, 25.0 °C
How it was run: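 Complexes mixed with GSH or ascorbic acid at 25.0 ± 0.1 °C, pH 7.40 (10 mM HEPES, 0.1 M KCl) in a sealed tandem cuvette, both compartments argon-deoxygenated 10 min before mixing. UV–vis absorbance followed at complex λmax until stable; single-exponential fit, kobs taken as slope of ln(A/A0) versus t.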

C[C@]12CC[C@@H]3c4cc(C=NNC(N)=S)c(O)cc4CC[C@H]3[C@@H]1CCC2O (some centres unmarked) [estradiol-TSC, 2-((3,17 Dihydroxy-estra-1,3,5(10)-triene-2-yl)methylene)Hydrazine-1-carbothioamide]
pKa (physchem): 9.23 ± 0.03
kobs [1]: 0.07 ± 0.03 min⁻¹
